Assay results taken from patent publication US7714023B2, “Treatment or prophylaxis of migraine or headache disorders using citalopram, escitalopram or citalopram metabolites” (priority 2004, dated 2010).
pIC50: −log10 of the molar value. “And” between values parts separate entries of the source, which are not always exact repeats. Equal values may be shown once. Read-outs that look alike come from different tables or passages of the source.

Legend:
DA uptake = DA uptake into rat corpora striatum synaptosomes; assay type: biochemical
NE uptake = test: NE uptake, rat hypothalamus synaptosomes; assay type: biochemical
NE transporter = target: T1, NE transporter (Rattus norvegicus, UniProt Q63380); test: NE transporter binding, rat cerebral cortex, [3H]nisoxetine; conditions: Table 2, ten concentrations; read-out: Transporter and Muscarinic Receptor Binding IC50 NE
T1 construct: Rat cerebral cortex; from tissue; host or cells: rat cerebral cortex

[1] = system: cytochrome P450 enzymes (P450 4A, P4502C19, P450 2D6, P4501A2, P450 2C9, P450 2E1); conditions: in vitro; not by more than the stated degree; cited from earlier work
[2] = system: receptors for acetylcholine, histamine, norepinephrine, dopamine; monoamine oxidase; dopamine and norepinephrine reuptake sites; conditions: Willets, 1999; cited from earlier work
5-HT uptake = 5-HT uptake into rat brain synaptosomes; assay type: biochemical
DA transporter (h) = target: T2, DA transporter (h) (Homo sapiens, UniProt Q01959); test: DA transporter (h) binding, [3H]GBR12935
T2 construct: expressed in transfected cells; host or cells: CHO cells

NE transporter (h) = target: T3, NE transporter (h) (Homo sapiens, UniProt P23975); test: NE transporter (h) binding, [3H]nisoxetine
T3 construct: expressed in transfected cells; host or cells: MDCK cells

5-HT transporter (h) = target: T4, 5-HT transporter (h) (Homo sapiens, UniProt P31645); assay type: binding
T4 construct: expressed in transfected cells; host or cells: HEK 293 cells

DA transporter = target: T5, DA transporter (Rattus norvegicus, UniProt P23977); test: DA transporter binding, rat striatum, [3H]GBR12935; conditions: Table 2, ten concentrations; read-out: Transporter and Muscarinic Receptor Binding IC50 DA
T5 construct: Rat striatum; from tissue; host or cells: rat striatum

5-HT transporter = target: T6, 5-HT transporter (Rattus norvegicus, UniProt P31652); test: 5-HT transporter binding, rat cerebral cortex, [3H]paroxetine; conditions: Table 2, ten concentrations; read-out: Transporter and Muscarinic Receptor Binding IC50 5-HT rat
T6 construct: Rat cerebral cortex; from tissue; host or cells: rat cerebral cortex

[3] = Table 3, rat brain synaptosomes, read-out: Monoamine Uptake IC50 DA
[4] = Table 3, rat brain synaptosomes, read-out: Monoamine Uptake IC50 NE
[5] = Table 1, rat brain synaptosomes, read-out: Functional Uptake IC50 DA
[6] = Table 1, rat brain synaptosomes, read-out: Functional Uptake IC50 NE
[7] = Table 1, rat brain synaptosomes, read-out: Functional Uptake IC50 5-HT
[8] = Table 1, racemic forms, duplicate, read-out: Transporter Binding IC50 DA
[9] = Table 1, racemic forms, duplicate, read-out: Transporter Binding IC50 NE
[10] = Table 3, rat brain synaptosomes, read-out: Monoamine Uptake IC50 5-HT
[11] = Table 3, human recombinant CHO cells, [3H]-GBR 12935, read-out: Human Transporter Binding IC50 DA
[12] = Table 3, human recombinant MDCK cells, [3H]-nisoxetine, read-out: Human Transporter Binding IC50 NE
[13] = Table 2, ten concentrations, read-out: Transporter and Muscarinic Receptor Binding IC50 5-HT human

T3 sequence (P23975 whole entry): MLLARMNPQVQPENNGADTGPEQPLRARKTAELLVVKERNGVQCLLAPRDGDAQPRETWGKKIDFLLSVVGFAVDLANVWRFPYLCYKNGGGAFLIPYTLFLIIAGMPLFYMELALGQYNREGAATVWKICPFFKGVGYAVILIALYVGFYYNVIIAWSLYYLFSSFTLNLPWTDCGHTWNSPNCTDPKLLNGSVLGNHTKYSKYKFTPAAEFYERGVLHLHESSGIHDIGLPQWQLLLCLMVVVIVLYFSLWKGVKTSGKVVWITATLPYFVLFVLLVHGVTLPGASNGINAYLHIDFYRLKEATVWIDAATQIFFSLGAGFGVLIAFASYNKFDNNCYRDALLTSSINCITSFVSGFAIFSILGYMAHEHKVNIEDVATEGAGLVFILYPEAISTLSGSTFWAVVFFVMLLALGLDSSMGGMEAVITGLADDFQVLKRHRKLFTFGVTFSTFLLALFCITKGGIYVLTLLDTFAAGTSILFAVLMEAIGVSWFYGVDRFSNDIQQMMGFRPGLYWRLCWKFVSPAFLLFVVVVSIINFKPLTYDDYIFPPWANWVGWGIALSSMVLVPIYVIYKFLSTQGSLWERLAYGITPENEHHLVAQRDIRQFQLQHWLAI
T2 sequence (Q01959 whole entry): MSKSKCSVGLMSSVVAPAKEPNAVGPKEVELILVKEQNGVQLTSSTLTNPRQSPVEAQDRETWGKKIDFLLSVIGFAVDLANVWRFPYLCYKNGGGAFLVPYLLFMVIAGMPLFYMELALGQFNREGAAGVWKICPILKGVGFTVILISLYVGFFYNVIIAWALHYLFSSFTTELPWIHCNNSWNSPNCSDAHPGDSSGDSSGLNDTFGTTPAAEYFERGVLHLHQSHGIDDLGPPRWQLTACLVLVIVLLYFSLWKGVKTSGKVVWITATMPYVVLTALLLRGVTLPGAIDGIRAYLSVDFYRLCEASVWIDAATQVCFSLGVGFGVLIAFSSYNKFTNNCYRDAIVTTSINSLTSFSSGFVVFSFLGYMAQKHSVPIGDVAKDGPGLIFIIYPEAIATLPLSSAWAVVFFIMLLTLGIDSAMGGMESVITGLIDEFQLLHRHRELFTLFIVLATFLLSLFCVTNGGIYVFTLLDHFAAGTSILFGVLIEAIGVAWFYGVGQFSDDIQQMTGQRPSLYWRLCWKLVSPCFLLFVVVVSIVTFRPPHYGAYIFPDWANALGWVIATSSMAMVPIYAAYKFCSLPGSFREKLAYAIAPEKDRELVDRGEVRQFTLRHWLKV
T6 sequence (P31652 whole entry): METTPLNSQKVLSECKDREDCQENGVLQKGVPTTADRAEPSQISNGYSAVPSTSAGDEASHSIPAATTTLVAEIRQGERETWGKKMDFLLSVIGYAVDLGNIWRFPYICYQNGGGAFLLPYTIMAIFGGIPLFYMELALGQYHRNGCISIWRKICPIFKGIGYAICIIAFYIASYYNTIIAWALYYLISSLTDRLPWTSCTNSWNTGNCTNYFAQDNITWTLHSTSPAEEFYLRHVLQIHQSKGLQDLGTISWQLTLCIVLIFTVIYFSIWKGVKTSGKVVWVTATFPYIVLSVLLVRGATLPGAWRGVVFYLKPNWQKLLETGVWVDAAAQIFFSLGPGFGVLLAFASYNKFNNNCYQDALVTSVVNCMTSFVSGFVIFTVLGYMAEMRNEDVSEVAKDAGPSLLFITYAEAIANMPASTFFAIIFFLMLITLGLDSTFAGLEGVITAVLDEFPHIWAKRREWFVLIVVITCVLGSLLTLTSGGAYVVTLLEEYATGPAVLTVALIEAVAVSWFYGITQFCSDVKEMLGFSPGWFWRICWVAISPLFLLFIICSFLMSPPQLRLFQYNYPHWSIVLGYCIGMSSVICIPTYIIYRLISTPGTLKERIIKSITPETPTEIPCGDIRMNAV
T4 sequence (P31645 whole entry): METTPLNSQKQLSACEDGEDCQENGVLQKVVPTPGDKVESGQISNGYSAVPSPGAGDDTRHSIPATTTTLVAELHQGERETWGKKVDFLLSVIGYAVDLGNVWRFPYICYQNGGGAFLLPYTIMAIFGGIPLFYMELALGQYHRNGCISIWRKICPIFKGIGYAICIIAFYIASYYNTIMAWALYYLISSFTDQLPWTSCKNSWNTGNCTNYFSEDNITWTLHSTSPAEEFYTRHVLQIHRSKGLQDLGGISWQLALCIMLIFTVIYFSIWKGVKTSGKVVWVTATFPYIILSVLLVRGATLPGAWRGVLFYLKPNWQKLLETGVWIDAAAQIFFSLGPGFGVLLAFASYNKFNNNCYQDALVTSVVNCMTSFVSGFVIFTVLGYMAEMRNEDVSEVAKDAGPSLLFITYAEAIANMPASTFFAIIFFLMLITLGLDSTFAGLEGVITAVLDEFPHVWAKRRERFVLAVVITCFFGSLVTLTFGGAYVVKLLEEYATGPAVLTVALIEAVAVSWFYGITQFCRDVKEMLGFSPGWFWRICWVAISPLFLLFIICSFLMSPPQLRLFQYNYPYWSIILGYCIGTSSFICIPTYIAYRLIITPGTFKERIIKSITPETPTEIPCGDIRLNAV
T1 sequence (Q63380 1-617): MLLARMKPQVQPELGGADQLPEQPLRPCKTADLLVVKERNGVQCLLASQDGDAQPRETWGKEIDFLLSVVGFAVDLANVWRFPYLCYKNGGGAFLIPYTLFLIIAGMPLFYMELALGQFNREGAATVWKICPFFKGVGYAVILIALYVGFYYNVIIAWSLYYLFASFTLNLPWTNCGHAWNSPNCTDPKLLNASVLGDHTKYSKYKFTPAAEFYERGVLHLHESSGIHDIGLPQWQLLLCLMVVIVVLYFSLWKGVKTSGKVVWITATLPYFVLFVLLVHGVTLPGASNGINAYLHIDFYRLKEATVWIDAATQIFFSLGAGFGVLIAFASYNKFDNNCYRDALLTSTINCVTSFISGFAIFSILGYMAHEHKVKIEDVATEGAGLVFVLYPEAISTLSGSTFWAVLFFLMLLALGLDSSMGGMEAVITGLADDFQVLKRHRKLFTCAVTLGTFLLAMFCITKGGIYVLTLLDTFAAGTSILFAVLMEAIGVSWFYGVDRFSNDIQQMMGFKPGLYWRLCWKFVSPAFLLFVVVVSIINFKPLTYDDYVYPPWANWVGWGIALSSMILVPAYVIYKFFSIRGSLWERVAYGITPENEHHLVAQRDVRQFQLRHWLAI
T5 sequence (P23977 whole entry): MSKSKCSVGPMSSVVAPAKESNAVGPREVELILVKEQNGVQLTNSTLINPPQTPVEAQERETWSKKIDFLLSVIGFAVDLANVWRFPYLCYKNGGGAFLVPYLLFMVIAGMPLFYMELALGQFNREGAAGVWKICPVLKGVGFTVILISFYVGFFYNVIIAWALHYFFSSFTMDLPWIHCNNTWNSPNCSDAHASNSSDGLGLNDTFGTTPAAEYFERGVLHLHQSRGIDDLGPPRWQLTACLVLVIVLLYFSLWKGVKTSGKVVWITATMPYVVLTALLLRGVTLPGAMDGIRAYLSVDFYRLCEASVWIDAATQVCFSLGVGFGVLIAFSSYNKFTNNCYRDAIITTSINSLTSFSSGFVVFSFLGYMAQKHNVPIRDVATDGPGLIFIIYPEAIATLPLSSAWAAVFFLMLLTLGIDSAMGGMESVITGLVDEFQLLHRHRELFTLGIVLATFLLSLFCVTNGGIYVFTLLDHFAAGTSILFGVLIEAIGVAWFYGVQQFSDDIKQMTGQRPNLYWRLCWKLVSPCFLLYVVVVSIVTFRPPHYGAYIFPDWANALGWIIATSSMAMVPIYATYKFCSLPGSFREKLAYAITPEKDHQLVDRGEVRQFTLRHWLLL

Row | SMILES | pIC50 (DA uptake; [3]) | pIC50 (NE uptake; [4]) | pIC50 (NE transporter) | pIC50 (DA uptake; [5]) | pIC50 (NE uptake; [6]) | pIC50 (5-HT uptake; [7]) | pIC50 (DA transporter (h); [8]) | pIC50 (5-HT uptake; [10]) | pIC50 (DA transporter) | pIC50 (DA transporter (h); [11]) | pIC50 (5-HT transporter) | pIC50 (NE transporter (h); [12]) | other results
1 | CN(C)CCCC1(c2ccc(F)cc2)OCc2cc(C#N)ccc21 (racemic) [Citalopram HBr (racemic), reference compound] | 4.89 | 5.31 | 5.32 |  |  |  |  |  |  |  |  |  | 
2 | CN(C)CCCC1(c2ccc(F)cc2)OCc2cc(C#N)ccc21 (racemic) [Racemic citalopram, (±)-1-(3-dimethylaminopropyl)-1-(4-fluorophenyl)-1,3-dihydroisobenzofuran-5-carbonitrile, reference compound] |  |  |  | 4.77 | 5.44 |  |  |  |  |  |  |  | inhibition of the activity of cytochrome P450 enzymes [1]: mild degree; affinity for receptors for various neurotransmitters, enzymes and other reuptake sites [2]: negligible affinity
3 | CNCCCC1(c2ccc(F)cc2)OCc2cc(C#N)ccc21 (racemic) [Racemic desmethylcitalopram] |  |  |  | 4.42 | 5.92 | 7.89 | 5.43 |  |  |  |  |  | inhibition of the activity of cytochrome P450 enzymes [1]: mild degree; pIC50 (NE transporter (h); [9]): 4.81
4 | N#Cc1ccc2c(c1)COC2(CCCN)c1ccc(F)cc1 (racemic) [Racemic didesmethylcitalopram, 3-5-Cyano-1-(4-fluorophenyl)-1,3-dihydro-isobenzofuran-1-yl-propyl amine] |  |  |  | 5.05 | 5.80 | 7.42 | 4.88 |  |  |  |  |  | pIC50 (5-HT transporter (h); Table 1, racemic forms, duplicate, read-out: Transporter Binding IC50 5-HT): 7.07; pIC50 (NE transporter (h); [9]): 4.67
5 | CNCCC[C@]1(c2ccc(F)cc2)OCc2cc(C#N)ccc21 [(R)(−)-Desmethylcitalopram] | 5.03 | 5.77 | 6.04 |  |  |  |  | 6.96 | 4.24 | 4.42 | 7.96 | 6.09 | 
6 | N#Cc1ccc2c(c1)CO[C@]2(CCCN)c1ccc(F)cc1 [(R)(−)-Didesmethylcitalopram] | 4.57 | 5.89 | 5.44 |  |  |  |  | 6.89 | 4.85 | 4.41 | 7.57 | 5.26 | pIC50 (5-HT transporter (h); [13]): 7.85
7 | CNCCC[C@@]1(c2ccc(F)cc2)OCc2cc(C#N)ccc21 [(S)(+)-Desmethylcitalopram] | 5.12 | 5.39 | 4.94 |  |  |  |  | 8.24 | 4.10 | 4.56 | 8.89 | 4.99 | 
8 | N#Cc1ccc2c(c1)CO[C@@]2(CCCN)c1ccc(F)cc1 [(S)(+)-Didesmethylcitalopram] | 4.96 | 5.48 | 4.70 |  |  |  |  | 6.74 | 4.15 | 4.26 | 7.72 | 4.62 | fold higher affinity than its antipode, human 5-HT transporter (5-HT transporter (h)): 16 fold; pIC50 (5-HT transporter (h); [13]): 6.66
10 | CNCCCC1c2ccccc2C=Cc2ccccc21 [Protriptyline, reference compound] |  | 8.64 |  | 9.00 |  |  | 8.17 and 7.82 |  |  |  |  |  | 
